Reference: patent US20030087906A1, “NITROGEN SUBSTITUTED BIARYL PURINE DERIVATIVES AS POTENT ANTIPROLIFERATIVE AGENTS” (priority 2001, published 2003)

Tests used:
MOLT-4 = assay: NCI 60-cell line growth inhibition assay; type: cell-based; settings: Homo sapiens
UACC-62 = assay: NCI 60-cell line growth inhibition assay; type: cell-based; settings: Homo sapiens
MCF7 = assay: NCI 60-cell line growth inhibition assay; type: cell-based; settings: Homo sapiens
NCI/ADR-RES = assay: NCI 60-cell line growth inhibition assay; type: cell-based; settings: Homo sapiens
EKVX = assay: NCI 60-cell line growth inhibition assay; type: cell-based; settings: Homo sapiens
SF-268 = assay: NCI 60-cell line growth inhibition assay; type: cell-based; settings: Homo sapiens
HS 578T = assay: NCI 60-cell line growth inhibition assay; type: cell-based; settings: Homo sapiens; Breast, HS 578T
HOP-62 = assay: NCI 60-cell line growth inhibition assay; type: cell-based; settings: Homo sapiens
OVCAR-5 = assay: NCI 60-cell line growth inhibition assay; type: cell-based; settings: Homo sapiens
SN12C = assay: NCI 60-cell line growth inhibition assay; type: cell-based; settings: Homo sapiens; Renal, SN12C
NCI-H322M = assay: NCI 60-cell line growth inhibition assay; type: cell-based; settings: Homo sapiens
SF-295 = assay: NCI 60-cell line growth inhibition assay; type: cell-based; settings: Homo sapiens
NCI-H460 = assay: NCI 60-cell line growth inhibition assay; type: cell-based; settings: Homo sapiens
MALME-3M = assay: NCI 60-cell line growth inhibition assay; type: cell-based; settings: Homo sapiens
COLO 205 = assay: NCI 60-cell line growth inhibition assay; type: cell-based; settings: Homo sapiens
CAKI-1 = assay: NCI 60-cell line growth inhibition assay; type: cell-based; settings: Homo sapiens
SK-MEL-5 = assay: NCI 60-cell line growth inhibition assay; type: cell-based; settings: Homo sapiens
SK-OV-3 = assay: NCI 60-cell line growth inhibition assay; type: cell-based; settings: Homo sapiens
DU-145 = assay: NCI 60-cell line growth inhibition assay; type: cell-based; settings: Homo sapiens
HCT-15 = assay: NCI 60-cell line growth inhibition assay; type: cell-based; settings: Homo sapiens
OVCAR-8 = assay: NCI 60-cell line growth inhibition assay; type: cell-based; settings: Homo sapiens
RXF 393 = assay: NCI 60-cell line growth inhibition assay; type: cell-based; settings: Homo sapiens
T-47D = assay: NCI 60-cell line growth inhibition assay; type: cell-based; settings: Homo sapiens, T47D
UO-31 = assay: NCI 60-cell line growth inhibition assay; type: cell-based; settings: Homo sapiens
IGROV1 = assay: NCI 60-cell line growth inhibition assay; type: cell-based; settings: Homo sapiens, IGROV-1
ACHN = assay: NCI 60-cell line growth inhibition assay; type: cell-based; settings: Homo sapiens
PC-3 = assay: NCI 60-cell line growth inhibition assay; type: cell-based; settings: Homo sapiens
SNB-19 = assay: NCI 60-cell line growth inhibition assay; type: cell-based; settings: Homo sapiens
KM12 = assay: NCI 60-cell line growth inhibition assay; type: cell-based; settings: Homo sapiens
SNB-75 = assay: NCI 60-cell line growth inhibition assay; type: cell-based; settings: Homo sapiens; CNS, SNB-75
[1] = tested on: Tumor Cells in Hollow Fibers; assay: NCI Hollow Fiber Assay (in vivo evaluation)
MDA-MB-435 = assay: NCI 60-cell line growth inhibition assay; type: cell-based; settings: Homo sapiens
CCRF-CEM = assay: NCI 60-cell line growth inhibition assay; type: cell-based; settings: Homo sapiens
RPMI-8226 = assay: NCI 60-cell line growth inhibition assay; type: cell-based; settings: Homo sapiens; Leukemia, RPMI-8226
MDA-N = assay: NCI 60-cell line growth inhibition assay; type: cell-based; settings: Homo sapiens; Breast, MDA-N
BT-549 = assay: NCI 60-cell line growth inhibition assay; type: cell-based; settings: Homo sapiens
NCI-H23 = assay: NCI 60-cell line growth inhibition assay; type: cell-based; settings: Homo sapiens
HL-60(TB) = assay: NCI 60-cell line growth inhibition assay; type: cell-based; settings: Homo sapiens; HL-60(TB) (Leukemia)
SK-MEL-2 = assay: NCI 60-cell line growth inhibition assay; type: cell-based; settings: Homo sapiens; SK-MEL-2 (Melanoma)
TK-10 = assay: NCI 60-cell line growth inhibition assay; type: cell-based; settings: Homo sapiens; TK-10 (Renal)

CC[C@H](CO)Nc1nc(NCc2ccc(-c3ccccn3)cc2)c2ncn(C(C)C)c2n1 [Compound 17]
GI50 (MOLT-4; Leukemia, MOLT-4): 0.25 µM | GI50 (UACC-62; Melanoma, UACC-62): 0.27 µM | GI50 (MCF7; Breast, MCF7): 0.16 µM | GI50 (NCI/ADR-RES; Breast, NCI/ADR-RES): 0.28 µM | GI50 (EKVX; Non-Small Cell Lung, EKVX): 2.51 µM | GI50 (SF-268; CNS, SF-268): 0.04 µM | GI50 (HS 578T): 6.31 µM | GI50 (HOP-62; Non-Small Cell Lung, HOP-62): 0.2 µM | GI50 (OVCAR-5; Ovarian, OVCAR-5): 0.26 µM | GI50 (SN12C): 0.56 µM | GI50 (NCI-H322M; Non-Small Cell Lung, NCI-H322M): > 1000 µM | GI50 (SF-295; CNS, SF-295): 0.19 µM | GI50 (NCI-H460; Non-Small Cell Lung, NCI-H460): 0.41 µM | GI50 (MALME-3M; Melanoma, MALME-3M): 19.9 µM | GI50 (COLO 205; Colon, COLO 205): 0.05 µM | GI50 (CAKI-1; Renal, CAKI-1): 0.13 µM | GI50 (SK-MEL-5; Melanoma, SK-MEL-5): 0.32 µM | GI50 (SK-OV-3; Ovarian, SK-OV-3): 0.4 µM | GI50 (DU-145; Prostate, DU-145): 0.63 µM | GI50 (HCT-15; Colon, HCT-15): 0.04 µM | GI50 (OVCAR-8; Ovarian, OVCAR-8): 0.13 µM | GI50 (RXF 393; Renal, RXF 393): 0.02 µM | GI50 (T-47D; Breast, T-47D): 0.13 µM | GI50 (UO-31; Renal, UO-31): 0.1 µM | GI50 (IGROV1; Ovarian, IGROV1): 0.2 µM | GI50 (ACHN; Renal, ACHN): 0.4 µM | GI50 (PC-3; Prostate, PC-3): 0.2 µM | GI50 (SNB-19; CNS, SNB-19): 0.14 µM | GI50 (KM12; Colon, KM12): 0.03 µM | GI50 (SNB-75): 0.02 µM | IP Score ([1]; IP fibers): 8 | SC score ([1]; SC fibers): 0 | GI50 (MDA-MB-435; Breast, MDA-MB-435): 0.2 µM | GI50 (CCRF-CEM; Leukemia, CCRF-CEM): 0.16 µM | GI50 (RPMI-8226): 0.03 µM | GI50 (MDA-N): 0.11 µM | GI50 (BT-549; Breast, BT-549): 0.4 µM | GI50 (NCI-H23; Non-Small Cell Lung, NCI-H23): 0.16 µM

CC[C@H](CO)Nc1nc(NCc2ccc(-c3ccc(OC)cc3)cc2)c2ncn(C(C)C)c2n1 [Compound 43]
GI50 (MOLT-4; MOLT-4 (Leukemia)): 2 µM | GI50 (UACC-62; UACC-62 (Melanoma)): 3.3 µM | GI50 (MCF7; MCF7 (Breast)): 2.7 µM | GI50 (NCI/ADR-RES; NCI/ADR-RES (Breast)): 5.2 µM | GI50 (EKVX; EKVX (Non-Small Cell Lung)): 2.8 µM | GI50 (HL-60(TB)): 2.1 µM | GI50 (SF-268; SF-268 (CNS)): 3 µM | GI50 (HOP-62; HOP-62 (Non-Small Cell Lung)): 3.3 µM | GI50 (OVCAR-5; OVCAR-5 (Ovarian)): 3.6 µM | GI50 (NCI-H322M; NCI-H322M (Non-Small Cell Lung)): 3.5 µM | GI50 (SF-295; SF-295 (CNS)): 4 µM | GI50 (NCI-H460; NCI-H460 (Non-Small Cell Lung)): 3.2 µM | GI50 (MALME-3M; MALME-3M (Melanoma)): 3 µM | GI50 (COLO 205; COLO 205 (Colon)): 1.6 µM | GI50 (CAKI-1; CAKI-1 (Renal)): 3 µM | GI50 (SK-MEL-5; SK-MEL-5 (Melanoma)): 2.1 µM | GI50 (SK-OV-3; SK-OV-3 (Ovarian)): 72.4 µM | GI50 (DU-145; DU-145 (Prostate)): 2.6 µM | GI50 (HCT-15; HCT-15 (Colon)): 3.9 µM | GI50 (OVCAR-8; OVCAR-8 (Ovarian)): 3.9 µM | GI50 (RXF 393; RXF 393 (Renal)): 1.9 µM | GI50 (SK-MEL-2): 61.7 µM | GI50 (T-47D; T-47D (Breast)): 2.2 µM | GI50 (UO-31; UO-31 (Renal)): 2.8 µM | GI50 (IGROV1; IGROV1 (Ovarian)): 3.4 µM | GI50 (ACHN; ACHN (Renal)): 3.1 µM | GI50 (PC-3; PC-3 (Prostate)): 38.9 µM | GI50 (SNB-19; SNB-19 (CNS)): 5 µM | GI50 (KM12; KM12 (Colon)): 2.3 µM | GI50 (MDA-MB-435; MDA-MB-435 (Breast)): 2.1 µM | GI50 (TK-10): 3.2 µM | GI50 (CCRF-CEM; CCRF-CEM (Leukemia)): 2.8 µM | GI50 (BT-549; BT-549 (Breast)): 4 µM | GI50 (NCI-H23; NCI-H23 (Non-Small Cell Lung)): 4.3 µM
